Assay results taken from patent US20220249599A1, “TREATMENT OF IMPLANTS WITH ENGINEERED ANTIMICROBIAL AMPHIPHILIC PEPTIDES” (priority 2018, published 2022).
In brackets after ≈: the same amount, converted by molar mass. Read-outs that look alike come from different tables or passages of the source.

Key:
[1] = tested on: Staphylococcus aureus (n = 104); assay: microbe, parasite or virus in culture; format: cell-based; conditions: for % R (isolates resistant): CLSI breakpoints; for MIC range: all methicillin-resistant
Experimental: (§1) The clinical isolates were obtained from USA hospitals. […] Plates were incubated at 35° C. overnight.

[2] = tested on: Enterococcus faecium (n = 104); assay: microbe, parasite or virus in culture; conditions: for % R (isolates resistant): CLSI breakpoints
Experimental: Comparator antibiotics were supplied by Micromyx, and stock solutions were prepared on the first day of testing using solvents recommended by CLSI (1). Stock solutions of all compounds were made at 40× the final testing concentration and stored at −80° C. prior to testing. Information regarding compound source, catalog and lot number, testing concentrations and drug diluent for the comparators and test agent are detailed below in Table 3.
The test organisms evaluated in this study consisted of clinical isolates from the Micromyx Repository and reference isolates from the American Type Culture Collection (ATCC; Manassas, Va.). The clinical isolates were obtained from USA hospitals. Upon initial receipt at Micromyx, the organisms were sub-cultured onto an appropriate agar medium. Following incubation, colonies were harvested from these plates and cell suspensions prepared and frozen at −80° C. with a cryoprotectant. Prior to testing, the isolates were streaked from frozen vials onto Trypticase Soy Agar with 5% sheep blood (Becton Dickenson [BD]; Sparks, MD; Lot Nos. 7173618, 7166759, 7208688, 72144895, 7228505 and Remel Lenexa, Kans. Lot No. 212574). Plates were incubated at 35° C. overnight.
Mueller Hinton II broth (MHB II; BD; Lot Nos. 6258541 and 7143896) was used for MIC testing of aerobic organisms.
MIC values were determined using a broth microdilution procedure described by CLSI (1, 3). Automated liquid handlers (Multidrop 384, Labsystems, Helsinki, Finland; Biomek 2000 and Biomek FX, Beckman Coulter, Fullerton Calif.) were used to conduct serial dilutions and liquid transfers.
To prepare the drug mother plates, which would provide the serial drug dilutions for the replicate daughter plates, the wells of columns 2-12 of standard 96-well microdilution plates (Costar 3795) were filled with 150 µl of the designated diluent for each row of drug. The test articles and comparator compounds ([…] at 40× the highest concentration to be tested) were dispensed into the appropriate wells in column 1. The Biomek 2000 was then used to make 2-fold serial dilutions in the mother plates from column 1 through column 11. The wells of Column 12 contained no drug and served as the organism growth control wells for the assay.
The daughter plates were loaded with […] per well of MHB II using the Multidrop 384. The daughter plates were completed on the Biomek FX instrument which transferred 5 µL of drug solution from each well of a mother plate to the corresponding well of each daughter plate in a single step. A standardized inoculum of each test organism was prepared per CLSI methods (1). The inoculum for each organism was dispensed into sterile reservoirs divided by length (Beckman Coulter), and the Biomek 2000 was used to inoculate the plates. Daughter plates were placed on the Biomek 2000 work surface in reverse orientation so that inoculation took place from low to high drug concentration.
Plates were stacked 3-4 high, covered with a lid on the top plate, placed in plastic bags, and incubated at 35° C. for 16 to 20 hrs. Following incubation, the microplates were removed from the incubator and viewed from the bottom using a plate viewer. […] The MIC was read and recorded as the lowest concentration of drug that inhibited visible growth of the organism.
Clinical breakpoints to determine percent resistance within a given organism group were obtained from CLSI (3), with the exception of colistin for K. pneumoniae, Enterobacter spp., and E. coli, which are only available from EUCAST.

[3] = tested on: Pseudomonas aeruginosa (n = 109); format: cell-based; conditions: Pseudomonas aeruginosa (n = 109), CLSI breakpoints
Experimental: as §1

[4] = tested on: Klebsiella pneumoniae (n = 101); format: cell-based
Experimental: as §1

[5] = tested on: Acinetobacter spp. (n = 104); format: cell-based; conditions: Acinetobacter spp. (n = 104), CLSI breakpoints
Experimental: as §1

[6] = tested on: Escherichia coli (n = 101); format: cell-based; conditions: Escherichia coli (n = 101), CLSI breakpoints, colistin EUCAST
Experimental: as §1

[7] = tested on: Enterobacter spp. (n = 102); format: cell-based, Enterobacter aerogenes and E. cloacae; conditions: Enterobacter spp. (n = 102); for % R (isolates resistant): CLSI breakpoints, colistin EUCAST
Experimental: as §1

[8] = Staphylococcus aureus (n = 104)

| Structure (SMILES) | % R (isolates resistant) [1, 8] | MIC range [1, 8] | % R (isolates resistant) ([2]; Enterococcus faecium (n = 104)) | % R (isolates resistant) [3] | % R (isolates resistant) [5] | % R (isolates resistant) [6] | % R (isolates resistant) [7] | further results |
| --- | --- | --- | --- | --- | --- | --- | --- | --- |
| C[C@H]1c2cccc(O)c2C(=O)C2=C(O)[C@]3(O)C(=O)C(C(N)=O)=C(O)[C@@H](N(C)C)[C@@H]3[C@@H](O)[C@@H]21 [Doxycycline] | 0% | 0.06 to 8 µg/mL | 25% |  |  |  |  |  |
| CCC[C@@H]1C[C@@H](C(=O)N[C@@H]([C@H]2O[C@H](SC)[C@H](O)[C@@H](O)[C@H]2O)[C@H](C)Cl)N(C)C1 [Clindamycin] | 37.5% |  |  |  |  |  |  | MIC90 [1, 8]: >16 µg/mL |
| CC(=O)NC[C@H]1CN(c2ccc(N3CCOCC3)c(F)c2)C(=O)O1 [Linezolid] | 1.9% | 1 to 8 µg/mL | 3.8% |  |  |  |  | MIC range ([2]; Enterococcus faecium (n = 104)): 1 to 32 µg/mL; MIC range ([2]; Enterococcus faecium (n = 104), listed as linezolid): 1 to 32 µg/mL |
| NC[C@H]1O[C@H](O[C@H]2[C@H](O)[C@@H](O[C@H]3O[C@H](CO)[C@@H](O)[C@H](N)[C@H]3O)[C@H](N)C[C@@H]2N)[C@H](N)C[C@@H]1O [Tobramycin] |  |  |  | 7.4% | 49.0% | 21.7% | 3.9% | % R (isolates resistant) [4]: over 60%; % R (isolates resistant) ([4]; Klebsiella pneumoniae (n = 101), CLSI breakpoints, colistin EUCAST): 59.4%; MIC range [7]: 0.12 to 64 µg/mL |
| CN[C@H](CC(C)C)C(=O)N[C@H]1C(=O)N[C@@H](CC(N)=O)C(=O)N[C@H]2C(=O)N[C@H]3C(=O)N[C@H](C(=O)N[C@H](C(=O)O)c4cc(O)cc(O)c4-c4cc3ccc4O)[C@H](O)c3ccc(c(Cl)c3)Oc3cc2cc(c3O[C@@H]2O[C@H](CO)[C@@H](O)[C@H](O)[C@H]2O[C@H]2C[C@](C)(N)[C@H](O)[C@H](C)O2)Oc2ccc(cc2Cl)[C@H]1O [Vancomycin] | 0% | 0.5 to 2 µg/mL | 47.1% |  |  |  |  | MIC50 ([1]; Staphylococcus aureus): 1 µg/mL (≈ 0.69 µM); MIC90 ([1]; Staphylococcus aureus): 1 µg/mL (≈ 0.69 µM); MIC ([1]; Staphylococcus aureus, read-out: Mode (MIC)): 1 µg/mL (≈ 0.69 µM); MIC50 ([2]; Enterococcus faecium): 1 µg/mL (≈ 0.69 µM); MIC90 ([2]; Enterococcus faecium): > 32 µg/mL; MIC90 ([2]; Enterococcus faecium (n = 104)): >32 µg/mL; MIC ([2]; Enterococcus faecium, read-out: Mode (MIC)): > 32 µg/mL |
| CC(C)(O/N=C(\C(=O)N[C@@H]1C(=O)N2C(C(=O)[O-])=C(C[n+]3ccccc3)CS[C@H]12)c1csc(N)n1)C(=O)O [Ceftazidime] |  |  |  | 14.6% | 61.5% | 33.6% | 36.3% |  |
